Like-named read-outs stand apart in the source and are kept apart here.
Key:
Format in all cases: in vivo
Brassica napus (BRSNW) = conditions: crop plant compatibility, in comparison to untreated controls
Outline: (§1)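 Crop injury rated visually in percent against untreated plants roughly 3 weeks after treatment (0% no effect, 100% plants dead). Compounds, as WP or EC with 0.5% additive in 600 l/ha water, were applied to the covering soil right after sowing; greenhouse growth. Suffixes a, b, c denote different dosages.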

Oryza sativa (ORYSA) [1] = conditions: pre-emergence, crop plant compatibility, in comparison to untreated controls
Outline: as §1

Zea mays (ZEAMX) [2] = conditions: pre-emergence, crop plant compatibility, in comparison to untreated controls
Outline: as §1

[3] = test system: Triticum aestivum (TRZAS); conditions: pre-emergence, crop plant compatibility, in comparison to untreated controls
Outline: as §1

Oryza sativa (ORYSA) [4] = conditions: crop plant compatibility, effect in comparison to untreated controls
Outline: (§2)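 Foliar application at the one-leaf stage: WP/EC formulation, 0.5% additive, 600 l/ha water. Greenhouse-grown in sandy loam. Endpoint is visual % injury relative to untreated controls at about 3 weeks.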

Zea mays (ZEAMX) [5] = conditions: crop plant compatibility, effect vs untreated controls
Outline: as §2

[6] = test system: Triticum aestivum (TRZAS); conditions: crop plant compatibility, effect vs untreated controls
Outline: as §2

[7] = test system: Echinochloa crus-galli (ECHCG); experiment: Post-emergence herbicidal action against ECHCG
Outline: (§3)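 Doses of 320 g/ha or lower, suffixes a, b and c marking different dosages, were applied post-emergence at the one-leaf stage in 600 l/ha water with 0.5% additive. Damage was assessed visually after about 3 weeks in the greenhouse.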

Viola tricolor (VIOTR) [8] = experiment: Post-emergence herbicidal action against VIOTR
Outline: as §3

[9] = test system: Amaranthus retroflexus (AMARE); experiment: Post-emergence herbicidal action against AMARE; conditions: 320 g/ha, visual rating about 3 weeks after treatment
Outline: as §3

Avena fatua (AVEFA) [10] = experiment: Post-emergence herbicidal action against AVEFA; conditions: 320 g/ha, visual rating about 3 weeks after treatment
Outline: as §3

[11] = test system: Verconica persica (VERPE); experiment: Post-emergence herbicidal action against VERPE
Outline: as §3

[12] = test system: Pharbitis purpurea (PHBPU); experiment: Pre-emergence herbicidal action against PHBPU; conditions: dosage 320 g/ha
Outline: (§4)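 Application rates ran to 320 g/ha or lower, with several dosages tested on the same weeds. The compound, as wettable powder or emulsion concentrate, is sprayed pre-emergence onto soil over sown seeds; greenhouse growth follows, and effect is rated visually after roughly 3 weeks.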

[13] = test system: Polygonum convolvulus (POLCO); experiment: Pre-emergence herbicidal action against POLCO; conditions: dosage 320 g/ha
Outline: as §4

Viola tricolor (VIOTR) [14] = experiment: Pre-emergence herbicidal action against VIOTR
Outline: as §4

[15] = test system: Abutilon theophrasti (ABUTH); experiment: Pre-emergence herbicidal action against ABUTH; conditions: 100% = plants have died
Outline: as §4

[16] = test system: Abutilon theophrasti (ABUTH); experiment: Post-emergence herbicidal action against ABUTH; conditions: visual rating about 3 weeks after treatment vs untreated controls (100% = plants have died, 0% = like control plants)
Outline: as §3

Lolium rigidum (LOLRI) [17] = experiment: Post-emergence herbicidal action against LOLRI; conditions: dosage 320 g/ha
Outline: as §3

Avena fatua (AVEFA) [18] = experiment: Pre-emergence herbicidal action against AVEFA; conditions: 320 g/ha, visual scoring after about 3 weeks vs untreated controls
Outline: as §4

[19] = test system: Matricaria inodora (MATIN); experiment: Pre-emergence herbicidal action against MATIN
Outline: as §4

Lolium rigidum (LOLRI) [20] = experiment: Pre-emergence herbicidal action against LOLRI; conditions: dosage 320 g/ha
Outline: as §4

[21] = test system: Alopecurus myosuroides (ALOMY); experiment: Pre-emergence herbicidal action against ALOMY; conditions: 320 g/ha; scored visually after about 3 weeks; 100% = plants have died
Outline: as §4

[22] = test system: Amaranthus retroflexus (AMARE); experiment: Pre-emergence herbicidal action against AMARE; conditions: visual scoring after about 3 weeks vs untreated controls
Outline: as §4

[23] = test system: Alopecurus myosuroides (ALOMY); experiment: Post-emergence herbicidal action against ALOMY; conditions: visual rating about 3 weeks after treatment vs untreated controls (100% = plants have died, 0% = like control plants)
Outline: as §3

[24] = test system: Pharbitis purpurea (PHBPU); experiment: Post-emergence herbicidal action against PHBPU; conditions: dosage 320 g/ha
Outline: as §3

[25] = test system: Polygonum convolvulus (POLCO); experiment: Post-emergence herbicidal action against POLCO; conditions: dosage 320 g/ha
Outline: as §3

O=C(O)C1CCN(C(=O)COc2nn(-c3ccccn3)c(-c3cncc(F)c3)c2Br)C1 (racemic) [Example I-63]
Pre-emergence action against BRSNW in % (Brassica napus (BRSNW); 80 g/ha): 0%
Pre-emergence action against BRSNW in % (Brassica napus (BRSNW); 320 g/ha): 20%
Pre-emergence action against ORYSA in % (Oryza sativa (ORYSA) [1]; 80 g/ha): 0%
Pre-emergence action against ORYSA in % (Oryza sativa (ORYSA) [1]; 320 g/ha): 0%
Pre-emergence action against ZEAMX in % (Zea mays (ZEAMX) [2]; 80 g/ha): 10%
Pre-emergence action against ZEAMX in % (Zea mays (ZEAMX) [2]; 320 g/ha): 10%
Pre-emergence action against TRZAS in % ([3]; 80 g/ha): 0%
Pre-emergence action against TRZAS in % ([3]; 320 g/ha): 0%
Post-emergence action against ORYSA in % (Oryza sativa (ORYSA) [4]; 80 g/ha): 0%
Post-emergence action against ORYSA in % (Oryza sativa (ORYSA) [4]; 320 g/ha): 10%
Post-emergence action against ZEAMX in % (Zea mays (ZEAMX) [5]; 80 g/ha): 0%
Post-emergence action against ZEAMX in % (Zea mays (ZEAMX) [5]; 320 g/ha): 10%
Post-emergence action against TRZAS in % ([6]; 80 g/ha): 0%
Post-emergence action against TRZAS in % ([6]; 320 g/ha): 0%

CCOC(=O)COc1nn(-c2ccnc(F)c2)c(-c2ccc(F)nc2)c1Br [III-01]
Pre-emergence action against BRSNW in % (Brassica napus (BRSNW); 80 g/ha): 0%
Pre-emergence action against ORYSA in % (Oryza sativa (ORYSA) [1]; 80 g/ha): 0%
Pre-emergence action against ORYSA in % (Oryza sativa (ORYSA) [1]; 320 g/ha): 0%
Pre-emergence action against ZEAMX in % (Zea mays (ZEAMX) [2]; 80 g/ha): 10%
Pre-emergence action against ZEAMX in % (Zea mays (ZEAMX) [2]; 320 g/ha): 20%
Pre-emergence action against TRZAS in % ([3]; 80 g/ha): 0%
Post-emergence action against ECHCG in % ([7]; dosage 320 g/ha): 80%
Post-emergence action against VIOTR in % (Viola tricolor (VIOTR) [8]; 320 g/ha): 80%
Post-emergence action against AMARE in % [9]: 80%
Post-emergence action against AVEFA in % (Avena fatua (AVEFA) [10]): 80%
Post-emergence action against ORYSA in % (Oryza sativa (ORYSA) [4]; 80 g/ha): 0%
Post-emergence action against ORYSA in % (Oryza sativa (ORYSA) [4]; 320 g/ha): 0%
Post-emergence action against ZEAMX in % (Zea mays (ZEAMX) [5]; 80 g/ha): 0%
Post-emergence action against ZEAMX in % (Zea mays (ZEAMX) [5]; 320 g/ha): 0%
Post-emergence action against TRZAS in % ([6]; 80 g/ha): 0%
Post-emergence action against VERPE in % ([11]; 320 g/ha, VERPE): 80%

CCOC(=O)COc1nn(-c2ncccc2C(F)(F)F)c(-c2ccc(F)nc2)c1Cl [Example I-325]
Pre-emergence action against PHBPU in % [12]: 80%
Pre-emergence action against POLCO in % [13]: 90%
Pre-emergence action against BRSNW in % (Brassica napus (BRSNW); 80 g/ha): 20%
Pre-emergence action against ZEAMX in % (Zea mays (ZEAMX) [2]; 80 g/ha): 0%
Pre-emergence action against ZEAMX in % (Zea mays (ZEAMX) [2]; 320 g/ha): 0%
Post-emergence action against ECHCG in % ([7]; dosage 80 g/ha): 90%
Post-emergence action against ECHCG in % ([7]; dosage 320 g/ha): 90%
Post-emergence action against VIOTR in % (Viola tricolor (VIOTR) [8]; 80 g/ha): 90%
Post-emergence action against VIOTR in % (Viola tricolor (VIOTR) [8]; 320 g/ha): 90%
Pre-emergence action against VIOTR in % (Viola tricolor (VIOTR) [14]; 320 g/ha, Viola tricolor): 100%
Pre-emergence action against VIOTR in % (Viola tricolor (VIOTR) [14]; dosage 80 g/ha): 90%
Pre-emergence action against ABUTH ([15]; 80 g/ha, scored visually after about 3 weeks vs untreated controls, 0% = like control plants): 90%
Pre-emergence action against ABUTH ([15]; Dosage column 320 g/ha (title prints 3200 g/ha), scored visually after about 3 weeks): 90%
Post-emergence action against ABUTH in % ([16]; 80 g/ha): 80%
Post-emergence action against ABUTH in % ([16]; 320 g/ha): 90%
Post-emergence action against LOLRI in % (Lolium rigidum (LOLRI) [17]): 90%
Pre-emergence action against AVEFA in % (Avena fatua (AVEFA) [18]): 100%
Pre-emergence action against MATIN in % ([19]; dosage 80 g/ha): 100%
Pre-emergence action against MATIN in % ([19]; dosage 320 g/ha): 100%
Pre-emergence action against LOLRI in % (Lolium rigidum (LOLRI) [20]): 100%
Pre-emergence action against ALOMY [21]: 100%
Pre-emergence action against AMARE in % ([22]; 80 g/ha): 100%
Pre-emergence action against AMARE in % ([22]; 320 g/ha): 100%
Post-emergence action against AMARE in % [9]: 80%
Post-emergence action against ALOMY in % ([23]; 80 g/ha): 80%
Post-emergence action against ALOMY in % ([23]; 320 g/ha): 100%
Post-emergence action against PHBPU in % [24]: 80%
Post-emergence action against ORYSA in % (Oryza sativa (ORYSA) [4]; 80 g/ha): 20%
Post-emergence action against ZEAMX in % (Zea mays (ZEAMX) [5]; 80 g/ha): 0%
Post-emergence action against VERPE in % ([11]; 320 g/ha, VERPE): 90%
Post-emergence action against VERPE in % ([11]; dosage 80 g/ha): 80%
Post-emergence action against POLCO in % [25]: 80%

Reference: US20240041042A1, “1-(PYRIDYL)-5-AZINYLPYRAZOLE DERIVATIVES, AND THEIR USE FOR CONTROL OF UNDESIRED PLANT GROWTH” (Bayer Aktiengesellschaft, priority 2020, published 2024)
